The source of these data is patent US20150132328A1 (priority 2011, published 2015).

Assay [1] deals with newborn rat thymocytes. The following applies: Con A 50 pg/mL. The text has this:
It was used an octapeptide with similar weight for the elaboration of the complex, to which was just the proline (4) and Glycine (5) original amino acids were interchanged by proline (4) and Glycine (5) resulting as […].

For assay [2], the system named is Jurkat cells. The following applies: peptide 10^−10M, PHA 1 μg/mL.
The test system of assay [3] is IL-2. The following applies: umbilical cord blood; PHA; cited from earlier work.
Assay [4] relates to THP-1 cells. The following applies: for Proliferation (% with respect to the control): LPS 0.5 μg/mL. From the text:
We proceeded to perform some related to the proliferative stimulation of the peptide in presence of other divalent cations such as magnesium, copper, and manganese.

Assay [5] concerns human lymphocytes. Conditions: for Proliferation (% with respect to the control): PHA 1 μg/mL.

Like-named read-outs stand apart in the source and are kept apart here.

Regarding LEDGPKFL [reference compound], the “Proliferation (% with respect to the control)” value was determined as 123.1 ± 6.1 % in assay [1] (10^−6 (918 ng/mL)); 125.6 ± 3.9 % in assay [1] (10^−7 (91.8 ng/mL)); 119.2 ± 6.1 % in assay [1] (10^−7.5 (9.58 ng/mL)); 117.3 ± 3.2 % in assay [1] (10^−8 (9.18 ng/mL)); 110.6 ± 7.9% in assay [1] (10^−9 (0.91 ng/mL)); 104.3 ± 4.8% in assay [1] (10^−10 (0.09 ng/mL)). Further, the “Proliferation (% with respect to the control)” value in assay [1] (10^−11 (0.009 ng/mL)) is given as 103.7 ± 5.1%; in assay [1] (10^−12 (0.0009 ng/mL)) it was 104.4 ± 2.5%; in assay [2] ([ZINC] (M) −8), 195 ± 10 %; in assay [2] ([ZINC] (M) −9) it was 192 ± 12 %; in assay [2] ([ZINC] (M) −10), 190 ± 10 %; in assay [2] ([ZINC] (M) −11), 135 ± 10 %. The “Proliferation (% with respect to the control)” value in assay [2] ([ZINC] (M) −12) amounted to 102 ± 5.2%. The “Concentrations increasing IL-2 production” value in assay [3] was 300 to 600 ng/mL.
Regarding Zinc [reference compound], the “Proliferation (% with respect to the control)” value in assay [4] (Concentration (M) −6) came to 105 ± 8.8%; in assay [4] (Concentration (M) −7) it was 102 ± 9.7%; in assay [4] (Concentration (M) −7.5), 104 ± 8.8%; in assay [4] (Concentration (M) −8) it was 102 ± 12.1%; in assay [4] (Concentration (M) −9), 103 ± 9.9%; in assay [4] (Concentration (M) −10), 100 ± 7.0%. The “Proliferation (% with respect to the control)” value in assay [4] (Concentration (M) −11) is 101 ± 3.9%; in assay [4] (Concentration (M) −12) it was 98 ± 4.5%; in assay [5] (Concentration (M) −6), 96 ± 2.8%; in assay [5] (Concentration (M) −7), 99 ± 2.7%; in assay [5] (Concentration (M) −7.5), 95 ± 3.8%; in assay [5] (Concentration (M) −8), 101 ± 4.1%. Also, the “Proliferation (% with respect to the control)” value in assay [5] (Concentration (M) −9) worked out at 103 ± 3.9%; in assay [5] (Concentration (M) −10) it was 100 ± 3.0%; in assay [5] (Concentration (M) −11), 99 ± 3.9%; in assay [5] (Concentration (M) −12), 96 ± 4.5%. Besides, the “Effect on proliferation” value is given as “did not stimulate the proliferation” in assay [4] (zinc ion by itself) and “did not modify the proliferation” in assay [5] (zinc ion by itself, PHA stimulated).
